Results: the NIST ThermoML archive (doi:10.1016/j.jct.2005.08.015)

Assay: of the first substance listed, at infinite dilution; xn = mol fraction of the nth substance listed
Conditions: Liquid, vibrating tube densimetry, x1 = 0

OCCO [1,2-ethanediol] + O
Conditions	partial molar volume [m3/mol]
298.21 K, 640 kPa	5.462e-05
298.21 K, 29790 kPa	5.452e-05
298.23 K, 15130 kPa	5.457e-05
318.17 K, 470 kPa	5.548e-05
318.17 K, 14770 kPa	5.53e-05
318.17 K, 30150 kPa	5.516e-05
338.16 K, 440 kPa	5.63e-05
338.16 K, 15150 kPa	5.604e-05
338.16 K, 30360 kPa	5.584e-05
373.12 K, 30010 kPa	5.724e-05
373.14 K, 15170 kPa	5.754e-05
373.15 K, 1960 kPa	5.78e-05
408.15 K, 30070 kPa	5.89e-05
408.16 K, 1760 kPa	5.969e-05
408.16 K, 15000 kPa	5.932e-05
441.98 K, 1950 kPa	6.178e-05
442.03 K, 15670 kPa	6.123e-05
442.04 K, 29810 kPa	6.072e-05
473.15 K, 1900 kPa	6.408e-05
473.15 K, 30250 kPa	6.266e-05
473.16 K, 15750 kPa	6.337e-05
498.15 K, 15970 kPa	6.53e-05
498.15 K, 30110 kPa	6.448e-05
498.16 K, 2930 kPa	6.621e-05
523.16 K, 5030 kPa	6.856e-05
523.16 K, 16160 kPa	6.754e-05
523.16 K, 30260 kPa	6.653e-05
548.17 K, 7030 kPa	7.13e-05
548.18 K, 18020 kPa	6.994e-05
548.18 K, 30300 kPa	6.88e-05
573.14 K, 30090 kPa	7.119e-05
573.18 K, 10040 kPa	7.399e-05
573.19 K, 15080 kPa	7.318e-05
573.19 K, 19910 kPa	7.25e-05
573.23 K, 24730 kPa	7.182e-05

CC(O)CO (stereo unspecified) [1,2-propanediol] + O
Conditions	partial molar volume [m3/mol]
298.21 K, 640 kPa	7.123e-05
298.22 K, 15160 kPa	7.119e-05
298.22 K, 29790 kPa	7.112e-05
318.17 K, 500 kPa	7.214e-05
318.17 K, 14770 kPa	7.192e-05
318.17 K, 30140 kPa	7.175e-05
338.16 K, 440 kPa	7.321e-05
338.16 K, 15160 kPa	7.291e-05
338.16 K, 30320 kPa	7.263e-05
373.13 K, 15150 kPa	7.509e-05
373.13 K, 29980 kPa	7.46e-05
373.14 K, 2010 kPa	7.548e-05
408.15 K, 29980 kPa	7.718e-05
408.16 K, 1760 kPa	7.843e-05
408.16 K, 15000 kPa	7.781e-05
441.99 K, 1840 kPa	8.185e-05
442.03 K, 15650 kPa	8.093e-05
442.03 K, 29800 kPa	8.01e-05
473.15 K, 1890 kPa	8.576e-05
473.15 K, 15760 kPa	8.445e-05
473.16 K, 30230 kPa	8.325e-05
498.15 K, 2930 kPa	8.947e-05
498.15 K, 15970 kPa	8.777e-05
498.15 K, 30110 kPa	8.627e-05
523.16 K, 4980 kPa	9.38e-05
523.16 K, 16130 kPa	9.172e-05
523.16 K, 30320 kPa	8.966e-05
548.17 K, 7020 kPa	9.914e-05
548.18 K, 18020 kPa	9.621e-05
548.18 K, 30440 kPa	9.367e-05
573.14 K, 30360 kPa	9.86e-05
573.18 K, 10120 kPa	0.000106
573.19 K, 19990 kPa	0.0001018

OCC(O)CO [glycerol] + O
Conditions	partial molar volume [m3/mol]
298.21 K, 640 kPa	7.093e-05
298.21 K, 29800 kPa	7.103e-05
298.22 K, 15170 kPa	7.097e-05
318.17 K, 470 kPa	7.205e-05
318.17 K, 14770 kPa	7.195e-05
318.17 K, 30260 kPa	7.194e-05
338.16 K, 440 kPa	7.304e-05
338.16 K, 15150 kPa	7.288e-05
338.16 K, 30360 kPa	7.277e-05
373.13 K, 15180 kPa	7.444e-05
373.13 K, 30110 kPa	7.428e-05
373.14 K, 1980 kPa	7.463e-05
408.15 K, 30120 kPa	7.586e-05
408.16 K, 1830 kPa	7.644e-05
408.16 K, 14970 kPa	7.616e-05
441.99 K, 1850 kPa	7.825e-05
442.03 K, 15670 kPa	7.795e-05
442.13 K, 29820 kPa	7.764e-05
473.15 K, 1960 kPa	8e-05
473.15 K, 15740 kPa	7.962e-05
473.16 K, 30290 kPa	7.92e-05
498.15 K, 3000 kPa	8.129e-05
498.15 K, 30210 kPa	8.047e-05
498.16 K, 15930 kPa	8.087e-05
523.15 K, 16150 kPa	8.212e-05
523.16 K, 5030 kPa	8.238e-05
523.16 K, 30280 kPa	8.184e-05
548.17 K, 7070 kPa	8.292e-05
548.18 K, 18040 kPa	8.309e-05
548.18 K, 30570 kPa	8.347e-05
573.14 K, 30040 kPa	8.344e-05
573.18 K, 10150 kPa	8.171e-05
573.19 K, 15080 kPa	8.249e-05
573.19 K, 19940 kPa	8.3e-05
573.25 K, 24690 kPa	8.32e-05

OCCCO [propan-1,3-diol] + O
Conditions	partial molar volume [m3/mol]
298.22 K, 640 kPa	7.193e-05
298.22 K, 29780 kPa	7.167e-05
298.23 K, 15160 kPa	7.183e-05
318.17 K, 480 kPa	7.262e-05
318.17 K, 14770 kPa	7.234e-05
318.17 K, 30240 kPa	7.212e-05
338.16 K, 440 kPa	7.345e-05
338.16 K, 15130 kPa	7.315e-05
338.16 K, 30290 kPa	7.289e-05
373.13 K, 30110 kPa	7.451e-05
373.14 K, 15170 kPa	7.496e-05
373.16 K, 1960 kPa	7.536e-05
408.15 K, 14940 kPa	7.727e-05
408.15 K, 30010 kPa	7.668e-05
408.16 K, 1870 kPa	7.783e-05
442.02 K, 1820 kPa	8.074e-05
442.03 K, 15700 kPa	7.994e-05
442.08 K, 29800 kPa	7.924e-05
473.15 K, 1940 kPa	8.402e-05
473.16 K, 15710 kPa	8.291e-05
473.16 K, 30280 kPa	8.188e-05
498.15 K, 15940 kPa	8.561e-05
498.16 K, 2960 kPa	8.701e-05
498.16 K, 30110 kPa	8.438e-05
523.16 K, 5030 kPa	9.047e-05
523.16 K, 16160 kPa	8.885e-05
523.16 K, 30260 kPa	8.723e-05
548.18 K, 7070 kPa	9.443e-05
548.18 K, 18040 kPa	9.233e-05
548.18 K, 30580 kPa	9.05e-05
573.17 K, 30240 kPa	9.414e-05
573.18 K, 10100 kPa	9.925e-05
573.19 K, 19920 kPa	9.645e-05
